As usually defined, the EC50 is the concentration that produces a half-maximal response.

The subject of the assay is Human Pan T cells. In words: IL2 & IFN-γ released by human pan T cell (ELISA). The class given is cell-based. The conditions noted are these: for EC50 / Human Pan T cells EC2x (nM, IL-2): IL-2, anti-CD3/CD28 stimulation, 48 hours; for Human Pan T cells EC2x (nM, IL-2): concentration giving 200% response (2 folds) over DMSO control; for Max fold change: IL-2 response over DMSO control; for Max fold change / efficacy in inducing IL-2 production: human pan T cells. An excerpt:
This example is an assay method that can be used to determine compound effects on IL2 & IFN-γ release using pan T cells and ELISA assay format.
Procedures for Pan T isolation and Reagent preparation (Day 0): • 1. Cell Growth Medium: • RPMI1640: ATCC, Cat# 30-2001 • 10% FBS: Gibco, Cat# 10099141 • 1% Pen-Strep: Gibco, Cat # 15140122 • 1% Non-essential amino: Gibco, Cat #11140050 • Beta- Mercaptoethanol: Gibco, Cat#21985023 • 2. Pan T isolation buffer preparation: • Prepare a solution containing phosphate-buffered saline (PBS), pH 7.2, 0.5% bovine serum albumin (BSA), and 2 mM EDTA by diluting MACS® BSA Stock Solution (# 130-091-376) 20 times with autoMACS® Rinsing Solution. Keep buffer at 4° C. Degas buffer before use, as air bubbles could block the column.
• 3. Thawing of frozen PBMC • 1) Pre-heat medium at 37° C. water bath. • 2) Rapidly thaw cells in 37° C. water bath. • 3) Add the pre-warmed medium into 15 mL tube. Transfer cells to the tube. • 4) 300 × g centrifuge for 8 min. (centrifuge increase 0, decrease 0). • 5) Wash the PBMC using Rinsing buffer. • 6) Centrifuge PBMC at 300 × g for 8 min, wash it twice (centrifuge increase 9, decrease 1). • 7) Resuspend the cells with Pan T cells isolation buffer and count cells number. • 4. Pan T cells isolation: • Cell staining with microbead cocktail • 1) Prepare cells and determine cell number. Filter cells by 70 µm cell strainer. • 2) Resuspend cell pellet in 40 µL of buffer per 10^7 total cells. • 3) Add 10 µL of Pan T Cell Biotin-Antibody Cocktail per 10^7 total cells. • 4) Mix well and incubate for 10 minutes in the refrigerator (ice). • 5) Add 30 µL of buffer per 10^7 total cells. • 6) Add 20 µL of Pan T Cell MicroBead Cocktail per 10^7 total cells. • 7) Mix well and incubate for 15 minutes in the refrigerator (ice). • 8) Proceed to subsequent magnetic cell separation.
Subsequent manual cell separation: • 1) Place LS Column in the magnetic field of a suitable MACS Separator. For details refer to the respective MACS Column data sheet. • 2) Prepare column by rinsing with 3 mL of buffer. • 3) Apply cell suspension onto the column. Collect flow-through, which represents the enriched T cells. • 4) Wash column with 5 mL of buffer. Collect unlabeled cells that pass through, representing the enriched T cells.
Reminder: Always wait until the column reservoir is empty before proceeding to the next step. • 5. Pan T cell FACS: • 1) Take out 50 µL of PBMC and Pan T cells to FACS tubes respectively. • 2) Incubate cells with anti-human CD3/CD4/CD8 antibodies (1 µL/1 µL/1 µL /tube) for 20 min at 4° C. For unstained control, incubate cells with FACS staining buffer. • 3) Wash 2 times with cold staining buffer (PBS with 0.2%BSA and 1 mM EDTA). • 4) Run FACS. Gate CD3^+, CD3^+CD4^+, and CD3^+CD8^+ population for % analysis. • 5) If the purity of Pan T cells is higher than 90%, dilute cell suspension to 1 million cells/mL with the appropriate volume of Cell Culture Media. • 6) Dispense the cell suspension into a sterile, disposable reservoir for future use.
Procedures for preparation of compounds and anti-human CD3/CD28 (Day 0): • 1. Compound preparation • Compound serial dilution (source plate 1000×) • Compounds are solubilized in 100% DMSO to a concentration of 10 mM. Then they were 3-fold serially diluted to 8-point doses. • 4× Compound dose preparation (inter plate: Corning-3599): • Prepare 4× compound solution in culture medium. Pipet up and down. For the ZPE control, prepare 0.4% DMSO (4×) in culture medium. For the HPE control, prepare 0.4 µM of RGT003-026 (4×) in culture medium. • 2. Anti-human CD3 (stock conc. 6.76 mg/ml): stored at 4° C. • 1) Dilute anti-human CD3 with PBS to final conc. of 0.5 µg/mL. • 2) Add 50 µL /well of CD3 to each well, except for the positive and negative control wells. […] Rinse each well twice with 200 µL of sterile PBS each time. • 3. […]

For the compound `CN1CCc2cc(F)c(Nc3ncc(Cl)c(N4C[C@](C)(CC(=O)O)c5ccccc54)n3)cc2C1` (single isomer, unassigned) [Example 5, (R)-2-[1-[5-chloro-2-[(6-fluoro-2-methyl-3,4-dihydro-1H-isoquinolin-7-yl)amino]pyrimidin-4-yl]-3-methyl-indolin-3-yl]acetic acid or (S)-2-[1-[5-chloro-2-[(6-fluoro-2-methyl-3,4-dihydro-1H-isoquinolin-7-yl)amino]pyrimidin-4-yl]-3-methyl-indolin-3-yl]acetic acid], the EC50 was found to be 17.4 nM; the “Human Pan T cells EC2x (nM, IL-2)” value was found to be 7.5 nM; the Max fold change is listed as 3.88; the “efficacy in inducing IL-2 production” value is reported as “good efficacy”.
With `COc1cc2c(cc1Nc1ncc(Cl)c(N3CC(C(=O)O)c4ccccc43)n1)CN(C)CC2` (stereo not shown) [Compound 7, reference compound], the “Human Pan T cells EC2x (nM, IL-2)” value is on record as 338 (N = 6) nM and the Max fold change is on record as 3.2 (N = 6). Besides, the half-maximal effective concentration (EC50) (Homo sapiens, T-cell) was found to be 278 nM.
The corresponding values for `COc1cc2c(cc1Nc1ncc(Cl)c(N3CC(C)(CC(=O)O)c4ccc(F)cc43)n1)CN(C)CC2` (stereo not shown) [Compound 10, reference compound] are 15.6 (N = 5) nM, 3.05 (N = 5) and 17.4 nM.
For the compound `COc1cc2c(cc1Nc1ncc(Cl)c(N3CC(C)(CC(=O)O)c4ccccc43)n1)CN(C)CC2` (stereo not shown) [Example 1, 2-(1-(5-chloro-2-((6-methoxy-2-methyl-1,2,3,4-tetrahydroisoquinolin-7-yl)amino)pyrimidin-4-yl)-3-methylindolin-3-yl)acetic acid], the “Human Pan T cells EC2x (nM, IL-2)” value was 28 (N = 5) nM; the Max fold change is 3.98 (N = 5); the “efficacy in inducing IL-2 production” value was “good efficacy”. Also, the EC50 (Homo sapiens, T-cell) is 50 nM.
The corresponding values for `CN1CCc2cc(F)c(Nc3ncc(Cl)c(N4CC(C)(CC(=O)O)c5ccccc54)n3)cc2C1` (stereo not shown) [Example 4, 2-(1-(5-chloro-2-((6-fluoro-2-methyl-1,2,3,4-tetrahydroisoquinolin-7-yl)amino)pyrimidin-4-yl)-3-methylindolin-3-yl)acetic acid] are 20.5 (N = 2) nM, 3.84 (N = 2), “good efficacy” and 31.5 nM.
The corresponding values for `COc1cc2c(cc1Nc1ncc(Cl)c(N3CC(C)(CC(=O)O)c4ccccc43)n1)CN(C)CC2` (single isomer, unassigned) [Example 2, (R)-2-(1-(5-chloro-2-((6-methoxy-2-methyl-1,2,3,4-tetrahydroisoquinolin-7-yl)amino)pyrimidin-4-yl)-3-methylindolin-3-yl)acetic acid or (S)-2-(1-(5-chloro-2-((6-methoxy-2-methyl-1,2,3,4-tetrahydroisoquinolin-7-yl)amino)pyrimidin-4-yl)-3-methylindolin-3-yl)acetic acid] are 12.5 (N = 10) nM, 3.2 (N = 10), “good efficacy” and 16.2 nM.
For `COc1cc2c(cc1Nc1ncc(Cl)c(N3CC(CC(=O)O)c4ccccc43)n1)CN(C)CC2` (stereo not shown) [Compound 8, reference compound], the “Human Pan T cells EC2x (nM, IL-2)” value is 240 (N = 2) nM and the Max fold change is recorded as 3.29 (N = 2). The EC50 (Homo sapiens, T-cell) turned out to be 275 nM.

Source of the values: US20230339896A1, “HPK1 INHIBITORS AND USES THEREOF” (QILU REGOR THERAPEUTICS INC., priority 2020, published 2023).
